Measured values reported in patent US20030082226A1, “Non-steroidal antiinflammatory drug formulations for topical application to the skin” (priority 1997, published 2003).

Assay: Delivery of various NSAIDs through human skin, effect of propylene glycol, static cells (Example 8)
Type: in vitro ADME
Settings: 0% PG, 10% enhancer, ethanol:water 70:30, pH about 7, human skin
Source text: All the tested formulations included ethanol and water at a 70:30 weight ratio and were neutralized with base to a pH of about 7.

Avg 24 Hour % Dose	Structure (SMILES)
9.1%	CC(C(=O)O)c1cccc(C(=O)c2ccccc2)c1 (stereo not shown) [Ketoprofen]
10.8%	O=C(c1ccccc1)c1ccc2n1CCC2C(=O)O (stereo not shown) [Ketorolac]
66.3%	CN1C(C(=O)Nc2ccccn2)=C(O)c2ccccc2S1(=O)=O [Piroxicam]
18.7%	O=C(O)Cc1ccccc1Nc1c(Cl)cccc1Cl [Diclofenac]
61.7%	CC(C)Cc1ccc(C(C)C(=O)O)cc1 (stereo not shown) [Ibuprofen]

Same assay, conditions: 5% PG, 10% enhancer, ethanol:water 70:30, pH about 7, human skin

Avg 24 Hour % Dose	Structure (SMILES)
10.3%	CC(C(=O)O)c1cccc(C(=O)c2ccccc2)c1 (stereo not shown) [Ketoprofen]
27.1%	O=C(c1ccccc1)c1ccc2n1CCC2C(=O)O (stereo not shown) [Ketorolac]
29.7%	O=C(O)Cc1ccccc1Nc1c(Cl)cccc1Cl [Diclofenac]
57.9%	CC(C)Cc1ccc(C(C)C(=O)O)cc1 (stereo not shown) [Ibuprofen]

Same assay, conditions: 10% PG, 10% enhancer, ethanol:water 70:30, pH about 7, human skin

Avg 24 Hour % Dose	Structure (SMILES)
12.0%	CC(C(=O)O)c1cccc(C(=O)c2ccccc2)c1 (stereo not shown) [Ketoprofen]
25.0%	O=C(c1ccccc1)c1ccc2n1CCC2C(=O)O (stereo not shown) [Ketorolac]
55.1%	CN1C(C(=O)Nc2ccccn2)=C(O)c2ccccc2S1(=O)=O [Piroxicam]
35.3%	O=C(O)Cc1ccccc1Nc1c(Cl)cccc1Cl [Diclofenac]
56.5%	CC(C)Cc1ccc(C(C)C(=O)O)cc1 (stereo not shown) [Ibuprofen]

Same assay, conditions: 10% enhancer, 0 to 20% PG

effect of propylene glycol on total delivery (percent of original dose) at twenty four hours	Structure (SMILES)
intermediate	O=C(c1ccccc1)c1ccc2n1CCC2C(=O)O (stereo not shown) [Ketorolac]
substantially neutral	CN1C(C(=O)Nc2ccccn2)=C(O)c2ccccc2S1(=O)=O [Piroxicam]

Same assay, conditions: 15% PG, 10% enhancer, ethanol:water 70:30, pH about 7, human skin

Avg 24 Hour % Dose	Structure (SMILES)
50.1%	CC(C)Cc1ccc(C(C)C(=O)O)cc1 (stereo not shown) [Ibuprofen]

Same assay, conditions: 20% PG, 10% enhancer, ethanol:water 70:30, pH about 7, human skin

Avg 24 Hour % Dose	Structure (SMILES)
27.0%	CC(C(=O)O)c1cccc(C(=O)c2ccccc2)c1 (stereo not shown) [Ketoprofen]
19.3%	O=C(c1ccccc1)c1ccc2n1CCC2C(=O)O (stereo not shown) [Ketorolac]
63.5%	CN1C(C(=O)Nc2ccccn2)=C(O)c2ccccc2S1(=O)=O [Piroxicam]
45.2%	O=C(O)Cc1ccccc1Nc1c(Cl)cccc1Cl [Diclofenac]
28.3%	CC(C)Cc1ccc(C(C)C(=O)O)cc1 (stereo not shown) [Ibuprofen]
